The values that follow come from patent US8338599B2, “Compounds having a potentiating effect on the activity of ethionamide and uses thereof” (priority 2006, dated 2012).

≈ marks a conversion by molar mass, not a printed value.

For data set [1], the target named is T1, EthR protein (Mycobacterium tuberculosis, UniProt P9WMC1). The data set can be described thus: Inhibition of interaction of EthR with its target DNA sequence (BIAcore). In kind it is binding, M. tuberculosis H37Rv. The conditions noted are these: compound 3 μM, EthR 540 nM, 37° C. Here is the method:
a) Measurement of the Activity of the Compounds on the Inhibition of Interaction of EthR with its Target DNA Sequence
The in vitro measurements of inhibition of binding of the EthR protein to its target DNA sequence were performed on a machine of BIAcore®2000 type (AB, Uppsala, Sweden).
The chips used are CM5 chips sold by the company GE Healthcare. Both the channels of a chip were activated with a solution containing 200 mM of EDC(N-ethyl-N′-(3-[…])carbodiimide) and 50 mM of NHS (N-hydroxysuccinimide). Next, streptavidin (500 ng/μl in a solution containing 10 mM of sodium acetate (pH 3.5) was injected over 12 minutes at a flow rate of 10 μl/minute. The 106-base-pair biotinylated DNA fragment corresponding to the ethA-R intergene region was deposited on one of the two channels of the chip at a rate of 200 ng/ml in order to obtain stable binding of streptavidin corresponding to 50 RU (resonance units). This DNA fragment was obtained by PCR using the chromosomal DNA of M. tuberculosis H37Rv as matrix and O-270: 5′-[…]-3′ (SEQ ID: No. 1) and O-271: 5′-biotin-[…]-3′ (SEQ ID: No. 2). The second channel was functionalized with a 113-base-pair biotinylated DNA fragment (fragment +14 to +127 of the bla gene of E. coli PCR-amplified using the following oligonucleotides: O-343: 5′-[…]-3′ (SEQ ID: No. 3) and O-344: 5′-biotin-[…]-3′ (SEQ ID: No. 4).
Measurement of the binding of the EthR protein to the immobilized DNA was performed at 37° C. in a reference buffer containing 10 mM of Tris-HCl (pH=7.5), 200 mM of NaCl, 0.1 mM of EDTA, 1 mM of DTT and 1% of DMSO at a flow rate of 20 μl/minute. The specific interaction (SI) of EthR with the 106-base-pair double-stranded DNA sequence, expressed in resonance units, corresponds to the difference in signal observed between the two channels.
For each inhibition measurement, the compounds of the invention are dissolved in the reference buffer at a concentration of 3 μM. The compounds of the invention are then incubated in the presence of the protein (540 nM) at 37° C. for 5 minutes, and each solution is then injected onto the two channels of the chip for 3 minutes at a flow rate of 20 μl/minute. The inhibition values are calculated at the end of the injection according to the following equation: […]
in which SIEthR corresponds to the value measured without ligand and SIEthR+ligand corresponds to the value measured in the presence of to ligand.
(Surface plasmon resonance follows binding to a sensor surface in real time, without labels.)

For a further data set, the system named is M. bovis BCG. In kind it is cell-based, M. bovis BCG 1173P2. The conditions noted are these: from MIC of ETH alone (6 μM) and MIC of ETH with 25 μM compound.
The nature of data set [2]: Measurement of the solubility (PBS pH 7.4 vs methanol, LC/MS). In kind it is physicochemical. The conditions noted are these: pH 7.4, aqueous buffer, kinetic from dmso stock. Here is the method:
e) Measurement of the Solubility of the Compounds of the Invention
40 μl of a solution containing a compound of the invention at a concentration of 10 mM in DMSO were diluted in 1.960 ml of methanol, and another 40 μl were diluted in 1.960 ml of a PBS solution containing 675 mM of NaCl, 13.5 mM of KCl, 50 mM of Na2HPO4.2H2O and 10 mM of KH2PO4 at a pH of 7.4. The two solutions were stirred for 24 hours at room temperature, and then centrifuged for 5 minutes and filtered through 0.45 μm filters. 20 μl of each solution were then diluted in 118 μl of methanol and analyzed by liquid chromatography coupled to mass spectrometry (LC/MS). The solubility was determined by the ratio of the areas under the curve of the mass signal for the compound of the invention, according to the following equation: […]

In data set [3] the target is T1, EthR protein. The data set is described as follows: In vitro measurement of the IC50 (EthR/DNA binding, BIAcore). Details: species or system M. tuberculosis H37Rv. The conditions noted are these: six concentrations from 0.11 μM to 27 μM; read-out: IC50. Here is the method:
b) In Vitro Measurement of the IC50 of the Compounds of the Invention.
The in vitro measurement of this datum was performed according to the same principle as for the measurement of inhibition of the EthR/DNA binding using the BIAcore technique.
The specific interaction between EthR and the specific 106-bp DNA fragment was measured on a range of six concentrations of the compounds of the invention, this range extending from 0.11 μM to 27 μM. The IC50 values are then extrapolated from the sigmoid curves obtained.

T1 sequence (P9WMC1 whole entry, looked up): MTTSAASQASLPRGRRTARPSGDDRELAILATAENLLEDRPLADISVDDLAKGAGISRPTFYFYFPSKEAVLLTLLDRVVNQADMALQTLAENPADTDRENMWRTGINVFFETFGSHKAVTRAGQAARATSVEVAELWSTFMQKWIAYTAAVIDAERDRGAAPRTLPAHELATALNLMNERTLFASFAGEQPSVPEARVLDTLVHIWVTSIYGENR

Usually inhibition stands for how much of the control response was suppressed. A low value points to little suppression. Turning to `[N-]=[N+]=NCC(=O)N1CCC(c2nc(-c3ccsc3)no2)CC1` [Compound 3, 2-azido-1-[4-(3-thiophen-3-yl[1,2,4]oxadiazol-5-yl)piperid-1-yl]ethanone], at 3 µM the inhibition at EthR protein [1] was 14%. Further, the Potentiation % with M. bovis BCG came out at 500%. The matching figures for `[N-]=[N+]=NCC(=O)N1CCC(c2nc(-c3ccccc3)no2)CC1` [Compound 4, 2-azido-1-[4-(3-phenyl[1,2,4]oxadiazol-5-yl)piperid-1-yl]ethanone]: 15% and 500%. Usually solubility stands for how much of the substance goes into solution per volume. For `[N-]=[N+]=NCC(=O)N1CCC(c2nc(-c3ccc(F)cc3)no2)CC1` [Compound 5, 2-azido-1-{4-[3-(4-fluorophenyl)[1,2,4]oxadiazol-5-yl]piperid-1-yl}ethanone], at 3 µM the inhibition at EthR protein [1] was 15%. Moreover, the concentration in solution in data set [2] (solubility at 24 h) was 9 µg/mL (≈ 27.2 µM).

Compound `[N-]=[N+]=NCC(=O)N1CCC(c2nc(-c3ccc4c(c3)OCO4)no2)CC1` [Compound 12, 2-azido-1-[4-(3-benzo[1,3]dioxol-5-yl[1,2,4]oxadiazol-5-yl)piperid-1-yl]ethanone] registered an inhibition at 3 µM at EthR protein [1] of 19%. Moreover, the concentration in solution in data set [2] (solubility at 24 h) was 71 µg/mL (≈ 199 µM). As usually defined, the IC50 is the concentration that gives 50% inhibition. In turn, `COc1ccc2nc(-c3noc(C4CCN(C(=O)CN=[N+]=[N-])CC4)n3)sc2c1` [Compound 15] had an inhibition at 3 µM at EthR protein [1] of 94%. For the same compound, the IC50 at EthR protein [3] was 1.56 µM.

On to `CC(=O)N1CCC(c2nc(-c3cccs3)no2)CC1` [Compound 17, 1-[4-(3-thiophen-2-yl[1,2,4]oxadiazol-5-yl)piperid-1-yl]ethanone], for which the concentration in solution in data set [2] (solubility at 24 h) was 55.5 µg/mL (≈ 200 µM). Regarding `C#CCCC(=O)N1CCC(c2nc(-c3cccs3)no2)CC1` [Compound 21, 1-[4-(3-thiophen-2-yl[1,2,4]oxadiazol-5-yl)piperid-1-yl]pent-4-yn-1-one], testing at 3 µM on EthR protein [1] gave an inhibition of 20%. Further, in the data set with M. bovis BCG, the Potentiation % came to 500%. In the case of `CC(C)CCC(=O)N1CCC(c2nc(-c3cccs3)no2)CC1` [Compound 25, 4-methyl-1-[4-(3-thiophen-2-yl[1,2,4]oxadiazol-5-yl)piperid-1-yl]pentan-1-one], 3 µM produced 70% inhibition against EthR protein [1]. Moreover, at EthR protein [3], the IC50 worked out at 0.91 µM. Also, in the data set with M. bovis BCG, the Potentiation % is on record as 500%. The like results for `O=C(CCC(F)(F)F)N1CCC(c2nc(-c3cccs3)no2)CC1` [Compound 27, 4,4,4-trifluoro-1-[4-(3-thiophen-2-yl[1,2,4]oxadiazol-5-yl)piperid-1-yl]butan-1-one] were, in that order, 96%, 1.57 µM and 500%. Compound `COCC(=O)N1CCC(c2nc(-c3cccs3)no2)CC1` [Compound 28, 2-methoxy-1-[4-(3-thiophen-2-yl[1,2,4]oxadiazol-5-yl)piperid-1-yl]ethanone] yielded a solubility at 24 h in data set [2] of 61.5 µg/mL (≈ 200 µM). Consider `O=C(O)CCC(=O)N1CCC(c2nc(-c3cccs3)no2)CC1` [Compound 31, 4-oxo-4-[4-(3-thiophen-2-yl[1,2,4]oxadiazol-5-yl)piperid-1-yl]butyric acid], for which, in data set [2], the solubility at 24 h was 67.1 µg/mL (≈ 200 µM). `O=C(CCC1CCCC1)N1CCC(c2nc(-c3cccs3)no2)CC1` [Compound 34, 3-cyclopentyl-1-[4-(3-thiophen-2-yl[1,2,4]oxadiazol-5-yl)piperid-1-yl]propan-1-one]: 3 µM produced 48% inhibition on EthR protein [1].

For the compound `O=C(CC1CCCC1)N1CCC(c2nc(-c3cccs3)no2)CC1` [Compound 35, 2-cyclopentyl-1-[4-(3-thiophen-2-yl[1,2,4]oxadiazol-5-yl)piperid-1-yl]ethanone], on EthR protein [1], at 3 µM the inhibition was 52%. In addition, at EthR protein [3], the IC50 worked out at 1.49 µM. In the data set with M. bovis BCG, the Potentiation % is recorded as 2500%.

In the case of `O=C(CC1C=CCC1)N1CCC(c2nc(-c3cccs3)no2)CC1` (stereo not drawn) [Compound 36, 2-cyclopent-2-enyl-1-[4-(3-thiophen-2-yl[1,2,4]oxadiazol-5-yl)piperid-1-yl]-ethanone], the inhibition at 3 µM on EthR protein [1] was 78%. Moreover, on EthR protein [3], the IC50 was determined as 1 µM. For the same compound, in the data set with M. bovis BCG, the Potentiation % is reported as 500%. `O=C(CC1CCCCC1)N1CCC(c2nc(-c3cccs3)no2)CC1` [Compound 37, 2-cyclohexyl-1-[4-(3-thiophen-2-yl[1,2,4]oxadiazol-5-yl)piperid-1-yl]ethanone] displayed an inhibition at 3 µM against EthR protein [1] of 76%. Moreover, the IC50 at EthR protein [3] was 3.49 µM. At EthR protein [1], `O=C(CC1CC2CCC1C2)N1CCC(c2nc(-c3cccs3)no2)CC1` (stereo not drawn) [Compound 40, 2-bicyclo[2.2.1]hept-2-yl-1-[4-(3-thiophen-2-yl[1,2,4]oxadiazol-5-yl)piperid-1-yl]ethanone] returned an inhibition at 3 µM of 59%.

In turn, `O=C(Cc1ccccc1)N1CCC(c2nc(-c3cccs3)no2)CC1` [Compound 41, 2-phenyl-1-[4-(3-thiophen-2-yl[1,2,4]oxadiazol-5-yl)piperid-1-yl]ethanone] registered an inhibition at 3 µM at EthR protein [1] of 45%. On EthR protein [1], `O=C(COc1ccccc1)N1CCC(c2nc(-c3cccs3)no2)CC1` [Compound 45, 2-phenoxy-1-[4-(3-thiophen-2-yl[1,2,4]oxadiazol-5-yl)piperid-1-yl]ethanone] showed an inhibition at 3 µM of 75%. For the same compound, the IC50 at EthR protein [3] is 1.5 µM. Moreover, in the data set on M. bovis BCG, the Potentiation % came to 2500%. `S=C(Nc1ccccc1)N1CCC(c2nc(-c3cccs3)no2)CC1` [Compound 49, 4-(3-thiophen-2-yl[1,2,4]oxadiazol-5-yl)piperidine-1-carbothioic acid phenylamide] gave an inhibition at 3 µM on EthR protein [1] of 86%. Further, the IC50 at EthR protein [3] was found to be 1.34 µM. `O=C(NC1CC1)N1CCC(c2nc(-c3cccs3)no2)CC1` [Compound 51, 4-(3-thiophen-2-yl[1,2,4]oxadiazol-5-yl)piperidine-1-carboxylic acid cyclopropylamide]: the inhibition at 3 µM against EthR protein [1] is 13%. In addition, the solubility at 24 h in data set [2] was found to be 272 µg/mL (≈ 853 µM).

`S=C(NC1CC1)N1CCC(c2nc(-c3cccs3)no2)CC1` [Compound 52, 4-(3-thiophen-2-yl[1,2,4]oxadiazol-5-yl)piperidine-1-carbothioic acid cyclopropylamide] registered an inhibition at 3 µM against EthR protein [1] of 61%. `O=S(=O)(Cc1ccccc1)N1CCC(c2nc(-c3cccs3)no2)CC1` [Compound 53, 1-phenylmethanesulfonyl-4-(3-thiophen-2-yl[1,2,4]oxadiazol-5-yl)piperidine] returned an inhibition at 3 µM against EthR protein [1] of 34%. The same measure, in the same setting: the same measure for `O=C(CC1CC1)N1CCC(c2nc(-c3cccc(N(Cc4ccccc4)Cc4ccccc4)c3)no2)CC1` [Compound 57, 2-cyclopropyl-1-{4-[3-(3-dibenzylaminophenyl)[1,2,4]oxadiazol-5-yl]piperid-1-yl}ethanone]: 46%. Still for that read-out and setting: the same measure for `O=C(Cc1cccs1)N1CCC(c2nc(-c3ccc(Br)s3)no2)CC1` [Compound 58, 1-{4-[3-(5-bromothiophen-2-yl)[1,2,4]oxadiazol-5-yl]piperid-1-yl}-2-thiophen-2-ylethanone]: 34%. `N#CCC(=O)N1CCC(c2nc(-c3ccc(Br)s3)no2)CC1` [Compound 59, 3-{4-[3-(5-bromothiophen-2-yl)[1,2,4]oxadiazol-5-yl]piperid-1-yl}-3-oxo-propionitrile]: 3 µM produced 77% inhibition against EthR protein [1]. Further, on EthR protein [3], the IC50 was 0.39 µM.
